Values quoted from earlier work in patent US20100204282A1, “Reverse indoles as 5-lipoxygenase-activating protein (FLAP) inhibitors” (priority 2007, published 2010).

Legend:
[1] = for efficacy in asthma: in vivo
[2] = test system: porcine carotid injury model
[3] = test system: rat photochemical model of endothelial injury
[4] = test system: mouse model of renal ischemia

| Compound | efficacy in asthma [1] | further results |
| --- | --- | --- |
| O=C(O)[C@@H](c1ccc(OCc2ccc3ccccc3n2)cc1)C1CCCC1 [BAY X1005, (R)-2-[4-(quinolin-2-yl-methoxy)phenyl]-2-cyclopentyl acetic acid] | have efficacy in asthma |  |
| CC(C)(C)Sc1c(CC(C)(C)C(=O)O)n(Cc2ccc(Cl)cc2)c2ccc(OCc3ccc4ccccc4n3)cc12 [MK-0591, 2-((5-((quinolin-2-yl)methoxy)-1-(4-chlorobenzyl)-3-(tert-butylthio)-1H-indol-2-yl)methyl)-2-methylpropanoic acid] | have efficacy in asthma |  |
| CC(C)c1ccc2c(c1)c(SC(C)(C)C)c(CC(C)(C)C(=O)O)n2Cc1ccc(Cl)cc1 [MK-886, 2-((1-(4-chlorobenzyl)-3-(tert-butylthio)-5-isopropyl-1H-indol-2-yl)methyl)-2-methylpropanoic acid] | have efficacy in asthma | postangioplasty vasoconstrictive response [2]: decreases the postangioplasty vasoconstrictive response; femoral artery intimal hyperplasia [3]: suppresses femoral artery intimal hyperplasia |
| CC(C)(O)c1ccccc1CCC(SCC1(CC(=O)O)CC1)c1cccc(C=Cc2ccc3ccc(Cl)cc3n2)c1 (stereo not drawn) [montelukast, [1-[[1-[3-[2-[(7-chloro-2-quinolyl)]vinyl]phenyl]-3-[2-(1-hydroxy-1-methyl-ethyl)phenyl]-propyl]sulfanylmethyl]cyclopropyl]acetic acid] |  | efficacy in asthma and allergic rhinitis ([1]; CysLT1 receptor antagonist): efficacious in asthma and allergic rhinitis |
| COc1cc(C(=O)NS(=O)(=O)c2ccccc2C)ccc1Cc1cn(C)c2ccc(NC(=O)OC3CCCC3)cc12 [zafirlukast] | efficacious in asthma |  |
| CC(c1cc2ccccc2s1)N(O)C(N)=O (stereo not drawn) [zileuton] | has efficacy in asthma | renal ischemia [4]: reduce renal ischemia |
